Source: PubChem BioAssay (NCI)
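Assay format: 96-well plates, 48-hour exposure. The concentration for full growth arrest is given as TGI.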

What was measured:
Assay in all cases: growth of human tumour cells (NCI), 48 h
A498 renal = tested on: A498 renal
U251 CNS = tested on: U251 CNS
SK-MEL-28 melanoma = tested on: SK-MEL-28 melanoma
SNB-75 CNS = tested on: SNB-75 CNS
DU-145 prostate = tested on: DU-145 prostate
HCC-2998 colon = tested on: HCC-2998 colon
PC-3 prostate = tested on: PC-3 prostate
M14 melanoma = tested on: M14 melanoma
KM12 colon = tested on: KM12 colon
MCF7 breast = tested on: MCF7 breast
SK-OV-3 ovarian = tested on: SK-OV-3 ovarian
SF-295 CNS = tested on: SF-295 CNS
HL-60(TB) leukemia = tested on: HL-60(TB) leukemia
LOX IMVI melanoma = tested on: LOX IMVI melanoma
NCI-H460 lung = tested on: NCI-H460 lung
OVCAR-5 ovarian = tested on: OVCAR-5 ovarian
A549 NSCLC = tested on: A549 NSCLC
HOP-92 NSCLC = tested on: HOP-92 NSCLC
OVCAR-4 ovarian = tested on: OVCAR-4 ovarian
RPMI-8226 leukemia = tested on: RPMI-8226 leukemia
MDA-MB-435 = tested on: MDA-MB-435
786-0 renal = tested on: 786-0 renal
EKVX NSCLC = tested on: EKVX NSCLC
CCRF-CEM leukemia = tested on: CCRF-CEM leukemia
MDA-N = tested on: MDA-N
SNB-19 CNS = tested on: SNB-19 CNS
SK-MEL-5 melanoma = tested on: SK-MEL-5 melanoma
RXF 393 renal = tested on: RXF 393 renal
UO-31 renal = tested on: UO-31 renal
COLO 205 colon = tested on: COLO 205 colon
HCT-116 colon = tested on: HCT-116 colon
CAKI-1 renal = tested on: CAKI-1 renal
MOLT-4 leukemia = tested on: MOLT-4 leukemia
SN12C renal = tested on: SN12C renal
NCI-H23 lung = tested on: NCI-H23 lung
SK-MEL-2 melanoma = tested on: SK-MEL-2 melanoma
SW-620 colon = tested on: SW-620 colon
HOP-62 NSCLC = tested on: HOP-62 NSCLC
K-562 leukemia = tested on: K-562 leukemia
HCT-15 colon = tested on: HCT-15 colon
NCI/ADR-RES ovarian = tested on: NCI/ADR-RES ovarian
T-47D breast = tested on: T-47D breast
ACHN renal = tested on: ACHN renal
OVCAR-3 ovarian = tested on: OVCAR-3 ovarian
IGROV1 ovarian = tested on: IGROV1 ovarian
SR leukemia = tested on: SR leukemia
TK-10 renal = tested on: TK-10 renal
MDA-MB-231 breast = tested on: MDA-MB-231 breast
OVCAR-8 ovarian = tested on: OVCAR-8 ovarian
BT-549 breast = tested on: BT-549 breast
NCI-H226 lung = tested on: NCI-H226 lung
UACC-257 melanoma = tested on: UACC-257 melanoma
HT29 colon = tested on: HT29 colon
NCI-H522 lung = tested on: NCI-H522 lung
SF-539 CNS = tested on: SF-539 CNS
UACC-62 melanoma = tested on: UACC-62 melanoma
MALME-3M melanoma = tested on: MALME-3M melanoma

C#CCCCC(=C)C[C@@H]1OC(=O)[C@H](C)[C@@H]1O
TGI (A498 renal): > 100 µM
TGI (U251 CNS): > 100 µM
TGI (SK-MEL-28 melanoma): > 100 µM
TGI (SNB-75 CNS): > 100 µM
TGI (DU-145 prostate): > 100 µM
TGI (HCC-2998 colon): > 100 µM
TGI (PC-3 prostate): > 100 µM
TGI (M14 melanoma): > 100 µM
TGI (KM12 colon): > 100 µM
TGI (MCF7 breast): > 100 µM
TGI (SK-OV-3 ovarian): > 100 µM
TGI (SF-295 CNS): > 100 µM
TGI (HL-60(TB) leukemia): > 100 µM
TGI (LOX IMVI melanoma): > 100 µM
TGI (NCI-H460 lung): > 100 µM
TGI (OVCAR-5 ovarian): > 100 µM
TGI (A549 NSCLC): > 100 µM
TGI (HOP-92 NSCLC): > 100 µM
TGI (OVCAR-4 ovarian): > 100 µM
TGI (RPMI-8226 leukemia): > 100 µM
TGI (MDA-MB-435): > 100 µM
TGI (786-0 renal): > 100 µM
TGI (EKVX NSCLC): > 100 µM
TGI (CCRF-CEM leukemia): > 100 µM
TGI (MDA-N): > 100 µM
TGI (SNB-19 CNS): > 100 µM
TGI (SK-MEL-5 melanoma): > 100 µM
TGI (RXF 393 renal): > 100 µM
TGI (UO-31 renal): > 100 µM
TGI (COLO 205 colon): > 100 µM
TGI (HCT-116 colon): > 100 µM
TGI (CAKI-1 renal): > 100 µM
TGI (MOLT-4 leukemia): > 100 µM
TGI (SN12C renal): > 100 µM
TGI (NCI-H23 lung): > 100 µM
TGI (SK-MEL-2 melanoma): > 100 µM
TGI (SW-620 colon): > 100 µM
TGI (HOP-62 NSCLC): > 100 µM
TGI (K-562 leukemia): > 100 µM
TGI (HCT-15 colon): > 100 µM
TGI (NCI/ADR-RES ovarian): > 100 µM
TGI (T-47D breast): > 100 µM
TGI (ACHN renal): > 100 µM
TGI (OVCAR-3 ovarian): > 100 µM

COc1ccc(N[C@H]([C@@H](c2ccccc2)S(=O)c2ccc(C)cc2)C(F)(F)F)cc1 (stereo partly drawn)
TGI (IGROV1 ovarian): > 100 µM
TGI (U251 CNS): 50.2 µM
TGI (SK-MEL-28 melanoma): > 100 µM
TGI (SR leukemia): > 100 µM
TGI (SNB-75 CNS): > 100 µM
TGI (DU-145 prostate): > 100 µM
TGI (HCC-2998 colon): > 100 µM
TGI (PC-3 prostate): > 100 µM
TGI (M14 melanoma): > 100 µM
TGI (KM12 colon): > 100 µM
TGI (TK-10 renal): > 100 µM
TGI (MCF7 breast): > 100 µM
TGI (SK-OV-3 ovarian): > 100 µM
TGI (SF-295 CNS): > 100 µM
TGI (HL-60(TB) leukemia): 73.7 µM
TGI (MDA-MB-231 breast): > 100 µM
TGI (OVCAR-8 ovarian): > 100 µM
TGI (LOX IMVI melanoma): > 100 µM
TGI (NCI-H460 lung): > 100 µM
TGI (OVCAR-5 ovarian): > 100 µM
TGI (BT-549 breast): > 100 µM
TGI (NCI-H226 lung): > 100 µM
TGI (A549 NSCLC): > 100 µM
TGI (HOP-92 NSCLC): > 100 µM
TGI (OVCAR-4 ovarian): 79.5 µM
TGI (UACC-257 melanoma): > 100 µM
TGI (MDA-MB-435): > 100 µM
TGI (786-0 renal): > 100 µM
TGI (HT29 colon): > 100 µM
TGI (EKVX NSCLC): > 100 µM
TGI (CCRF-CEM leukemia): 66.6 µM
TGI (MDA-N): > 100 µM
TGI (SNB-19 CNS): > 100 µM
TGI (SK-MEL-5 melanoma): > 100 µM
TGI (RXF 393 renal): > 100 µM
TGI (UO-31 renal): > 100 µM
TGI (NCI-H522 lung): > 100 µM
TGI (COLO 205 colon): > 100 µM
TGI (SF-539 CNS): 63.2 µM
TGI (HCT-116 colon): > 100 µM
TGI (CAKI-1 renal): > 100 µM
TGI (MOLT-4 leukemia): > 100 µM
TGI (UACC-62 melanoma): > 100 µM
TGI (SN12C renal): > 100 µM
TGI (NCI-H23 lung): > 100 µM
TGI (MALME-3M melanoma): > 100 µM
TGI (SK-MEL-2 melanoma): > 100 µM
TGI (SW-620 colon): > 100 µM
TGI (K-562 leukemia): > 100 µM
TGI (HCT-15 colon): > 100 µM
TGI (NCI/ADR-RES ovarian): > 100 µM
TGI (T-47D breast): > 100 µM
TGI (ACHN renal): > 100 µM
TGI (OVCAR-3 ovarian): > 100 µM
